Data as given in ChEMBL document CHEMBL3045013, “Suppression of pine wilt disease by an antibacterial agent, oxolinic acid” (2010).
The source made the active and inactive calls. No cut-off for these calls is given here.

Experiments:
[1] = system: Bursaphelenchus xylophilus; experiment: Nematicidal activity against Bursaphelenchus xylophilus in pot-grown three-year-old trees of Pinus densiflora assessed as reduction of disease incidence at 2% treated 3 months before inoculation measured after 9 months by measuring dead trees relative to control; assay type: functional; set-up: scale not given: the % may be the effect or the level left
[2] = system: Bursaphelenchus xylophilus; experiment: (§1) Nematicidal activity against Bursaphelenchus xylophilus in pot-grown three-year-old trees of Pinus densiflora assessed as reduction of disease incidence at 3.6 mg/seedlings treated 7 days before inoculation measured after 1 month by measuring dead seedling under greenhouse condition; assay type: functional; set-up: scale not given: the % may be the effect or the level left
[3] = system: Bursaphelenchus xylophilus; experiment: Nematicidal activity against Bursaphelenchus xylophilus assessed as mortality at 0.34 mg/l after 48 hr; assay type: functional
[4] = system: Bursaphelenchus xylophilus; experiment: as §1, with “condition relative to control” for “condition”; assay type: functional; set-up: scale not given: the % may be the effect or the level left
[5] = system: Bursaphelenchus xylophilus; experiment: Nematicidal activity against Bursaphelenchus xylophilus in pot-grown three-year-old trees of Pinus densiflora assessed as reduction of disease incidence at 2% treated 3 months before inoculation measured after 9 months by measuring dead trees; assay type: functional; set-up: scale not given: the % may be the effect or the level left
[6] = system: Serratia marcescens; experiment: Antibacterial activity against Serratia marcescens subsp. marcescens KRICT4 at 1.6 mg/l after 24 hr; assay type: functional, organism-based
[7] = system: Enterobacter asburiae; experiment: Antibacterial activity against Enterobacter asburiae KRICT3 at 1.6 mg/l after 24 hr; assay type: functional, organism-based
[8] = system: Ewingella americana; experiment: Antibacterial activity against Ewingella americana KRICT5 at 1.6 mg/l after 24 hr; assay type: functional, organism-based
[9] = system: Bursaphelenchus xylophilus; experiment: (§2) Nematicidal activity against Bursaphelenchus xylophilus in pot-grown three-year-old trees of Pinus densiflora assessed as reduction of disease incidence at 3 mg/seedlings treated 7 days before inoculation measured after 1 month by measuring dead seedling under greenhouse condition; assay type: functional; set-up: scale not given: the % may be the effect or the level left
[10] = system: Bursaphelenchus xylophilus; experiment: (§3) Nematicidal activity against Bursaphelenchus xylophilus in pot-grown three-year-old trees of Pinus densiflora assessed as reduction of disease incidence at 10 mg/seedlings treated 7 days before inoculation measured after 1 month by measuring dead seedling under greenhouse condition; assay type: functional; set-up: scale not given: the % may be the effect or the level left
[11] = system: Peribacillus frigoritolerans; experiment: Antibacterial activity against [Brevibacterium] frigoritolerans KRICT2 at 1.6 mg/l after 24 hr; assay type: functional, organism-based
[12] = system: Bursaphelenchus xylophilus; experiment: as §3, with “condition relative to control” for “condition”; assay type: functional; set-up: scale not given: the % may be the effect or the level left
[13] = system: Bursaphelenchus xylophilus; experiment: Nematicidal activity against Bursaphelenchus xylophilus in pot-grown three-year-old trees of Pinus densiflora assessed as reduction of disease incidence at 10% treated 3 months before inoculation measured after 9 months by measuring dead trees relative to control; assay type: functional; set-up: scale not given: the % may be the effect or the level left
[14] = system: Bursaphelenchus xylophilus; experiment: as §2, with “condition relative to control” for “condition”; assay type: functional; set-up: scale not given: the % may be the effect or the level left
[15] = system: Bursaphelenchus xylophilus; experiment: as §1, with “30” for “3.6”, “condition relative to control” for “condition”; assay type: functional; set-up: scale not given: the % may be the effect or the level left
[16] = system: Bursaphelenchus xylophilus; experiment: Nematicidal activity against Bursaphelenchus xylophilus assessed as mortality at 10 mg/l after 48 hr; assay type: functional
[17] = system: Bursaphelenchus xylophilus; experiment: Nematicidal activity against Bursaphelenchus xylophilus in pot-grown three-year-old trees of Pinus densiflora assessed as reduction of disease incidence at 10% treated 3 months before inoculation measured after 9 months by measuring dead trees; assay type: functional; set-up: scale not given: the % may be the effect or the level left
[18] = system: Bursaphelenchus xylophilus; experiment: Nematicidal activity against Bursaphelenchus xylophilus in pot-grown three-year-old trees of Pinus densiflora assessed as reduction of disease incidence at 30 mg/seedlings treated 7 days before inoculation measured after 1 month by measuring dead seedling under greenhouse condition; assay type: functional; set-up: scale not given: the % may be the effect or the level left

**Q.** How did the Activity [1] turn out when `CC[C@H](C)[C@H]1O[C@]2(C=C[C@@H]1C)C[C@@H]1C[C@@H](C/C=C(\C)[C@@H](O[C@H]3C[C@H](OC)[C@@H](O[C@H]4C[C@H](OC)[C@@H](O)[C@H](C)O4)[C@H](C)O3)[C@@H](C)/C=C/C=C3\CO[C@@H]4[C@H](O)C(C)=C[C@@H](C(=O)O1)[C@]34O)O2.CO[C@H]1C[C@H](O[C@H]2[C@H](C)O[C@@H](O[C@@H]3/C(C)=C/C[C@@H]4C[C@@H](C[C@]5(C=C[C@H](C)[C@@H](C(C)C)O5)O4)OC(=O)[C@@H]4C=C(C)[C@@H](O)[C@H]5OC/C(=C\C=C\[C@@H]3C)[C@]54O)C[C@@H]2OC)O[C@@H](C)[C@@H]1O` [ABAMECTIN] was run?
**A.** 93%

**Q.** And the Activity [2]?
**A.** 20%

**Q.** What about the Activity [3] of the same compound?
**A.** 90%

**Q.** And the Activity [4]?
**A.** 71%

**Q.** What about the Activity [5] of the same compound?
**A.** 6.7%

**Q.** Which results are given for `CN(C)[C@@H]1C(O)=C(C(N)=O)C(=O)[C@@]2(O)C(O)=C3C(=O)c4c(O)cccc4[C@@](C)(O)[C@H]3[C@H](O)[C@@H]12`?
**A.** Activity [6]: Active; Activity [7]: Active

**Q.** With `CCn1cc(C(=O)O)c(=O)c2cc3c(cc21)OCO3` [OXOLINIC ACID] as the compound, how does the Activity [8] read?
**A.** Active

**Q.** And the Activity [9]?
**A.** 20%

**Q.** And the Activity [10]?
**A.** 30%

**Q.** What about the Activity [11] of the same compound?
**A.** Active

**Q.** What about the Activity [12] of the same compound?
**A.** 57%

**Q.** What about the Activity [6] of the same compound?
**A.** Active

**Q.** And the Activity [13]?
**A.** 74%

**Q.** And the Activity [14]?
**A.** 71%

**Q.** What about the Activity [15] of the same compound?
**A.** 57%

**Q.** What about the Activity [16] of the same compound?
**A.** 22%

**Q.** What about the Activity [17] of the same compound?
**A.** 23.3%

**Q.** And the Activity [18]?
**A.** 30%
